What was measured:
[1] = test system: Hum48; d(T2AG3)8 (DNA, G4) TTAGGGTTAGGGTTAGGGTTAGGGTTAGGGTTAGGGTTAGGGTTAGGG; experiment: CD melting at 295 nm; details: 10 mM Tris-HCl, 0.1 mM EDTA, pH 7.4, pre-formed G4, 2 µM strand
[2] = test system: Hum24; d(T2AG3)4 (DNA, G4) TTAGGGTTAGGGTTAGGGTTAGGG; experiment: CD melting at 295 nm; details: 10 mM Tris-HCl, 0.1 mM EDTA, pH 7.4, pre-formed G4, 2 µM strand

Question: What does the source list for `CCOc1cc(-c2nc3ccc(N4CCN(CCO)CC4)cc3[nH]2)cc(-c2nc3ccc(N4CCN(CCO)CC4)cc3[nH]2)c1`?
Answer: ΔTm ([1]; 100 mM K+, ligand:DNA 20): 9 °C; ΔTm ([2]; 100 mM K+, ligand:DNA 20): 5 °C

Question: For `OCCN1CCN(c2ccc3[nH]c(-c4cc(OCCOCCOCCOCCOc5cc(-c6nc7cc(N8CCN(CCO)CC8)ccc7[nH]6)cc(-c6nc7cc(N8CCN(CCO)CC8)ccc7[nH]6)c5)cc(-c5nc6cc(N7CCN(CCO)CC7)ccc6[nH]5)c4)nc3c2)CC1`, which ΔTm ([1]; 100 mM K+, ligand:DNA 10) is on record?
Answer: 16 °C

Question: What about the ΔTm ([2]; 100 mM K+, ligand:DNA 10) of the same compound?
Answer: 16 °C

Question: What does the source list for `OCCN1CCN(c2ccc3[nH]c(-c4cc(OCCOCCOCCOCCOCCOCCOc5cc(-c6nc7cc(N8CCN(CCO)CC8)ccc7[nH]6)cc(-c6nc7cc(N8CCN(CCO)CC8)ccc7[nH]6)c5)cc(-c5nc6cc(N7CCN(CCO)CC7)ccc6[nH]5)c4)nc3c2)CC1`?
Answer: ΔTm ([1]; 100 mM K+, ligand:DNA 10): 21 °C; ΔTm ([1]; 100 mM Na+, ligand:DNA 10): 13 °C; ΔTm ([2]; 100 mM K+, ligand:DNA 10): 22 °C; ΔTm ([2]; 100 mM Na+, ligand:DNA 10): 11 °C

Question: What does the source list for `OCCN1CCN(c2ccc3[nH]c(-c4cc(OCCOCCOCCOCCOCCOc5cc(-c6nc7cc(N8CCN(CCO)CC8)ccc7[nH]6)cc(-c6nc7cc(N8CCN(CCO)CC8)ccc7[nH]6)c5)cc(-c5nc6cc(N7CCN(CCO)CC7)ccc6[nH]5)c4)nc3c2)CC1`?
Answer: ΔTm ([1]; 100 mM K+, ligand:DNA 10): 18 °C; ΔTm ([2]; 100 mM K+, ligand:DNA 10): 12 °C

Reference: publication PMC3380826 (2012)
